# Assay results published in patent US11390604B2 (Hoffmann-La Roche Inc., priority 2019, dated 2022).
# Structures can show the parent of a compound that is named as a salt.
# System: Acinetobacter baumannii ATCC 17961
# Assay: Antimicrobial susceptibility testing: 90% growth inhibitory concentration (IC90) determination
# Assay type: cell-based
# Conditions: ATCC17961, Acinetobacter baumannii ATCC 17961, Iso-Sensitest broth, read-out: ATCC 17961 IC90
# In short: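 Growth was followed kinetically by OD600 at 20-min intervals for 16 h at 35±2 °C, with ~5×10^5 CFU/ml in Iso-Sensitest broth. Compounds were tested as twofold dilutions (e.g. 50–0.097 μM final). The concentration giving 90% inhibition of log-phase growth was reported.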
row,IC90 [nM],Compound
1,446,"Cn1c(-c2cn(C3CC3(F)F)nc2C(F)(F)F)cnc1C(=O)Nc1ccc(C(=O)NC2CC3CN(C(=O)N[C@H]4CNC[C@@H]4O)CC32)c(Cl)c1 (mixture of isomers) [Example 347, rac-6-(2-chloro-4-(5-(1-(2,2-difluorocyclopropyl)-3-(trifluoromethyl)-1H-pyrazol-4-yl)-1-methyl-1H-imidazole-2-carboxamido)benzamido)-N-((3S,4S)-4-hydroxypyrrolidin-3-yl)-3-azabicyclo[3.2.0]heptane-3-carboxamide formate]"
2,414,"Cn1c(-c2cn(CC3CCC3)nc2C(F)(F)F)cnc1C(=O)Nc1ccc(C(=O)N2CCN(C(=O)[C@H]3CC[C@@H](N)C3)CC2)c(Cl)c1 [Example 327, N-(4-(4-((1S,3R)-3-aminocyclopentane-1-carbonyl)piperazine-1-carbonyl)-3-chlorophenyl)-5-(1-(cyclobutylmethyl)-3-(trifluoromethyl)-1H-pyrazol-4-yl)-1-methyl-1H-imidazole-2-carboxamide hydrochloride]"
3,234,"Cn1c(-c2cn(C3CCC3)nc2C(F)(F)F)cnc1C(=O)Nc1ccc(C(=O)N[C@H]2[C@@H]3CN(C(=O)C4CCNCC4)C[C@@H]32)c(Cl)c1 [Example 173, N-(3-chloro-4-(((1R,5S,6s)-3-(piperidine-4-carbonyl)-3-azabicyclo[3.1.0]hexan-6-yl)carbamoyl)phenyl)-5-(1-cyclobutyl-3-(trifluoromethyl)-1H-pyrazol-4-yl)-1-methyl-1H-imidazole-2-carboxamide formate]"
4,176,"Cn1c(-c2cn(CC#N)nc2C(F)(F)F)cnc1C(=O)Nc1ccc(C(=O)N[C@H]2C[C@@H](N)C2)c(Cl)c1 [Example 94, N-[4-[(3-aminocyclobutyl)carbamoyl]-3-chlorophenyl]-5-[1-(cyanomethyl)-3-(trifluoromethyl)pyrazol-4-yl]-1-methylimidazole-2-carboxamide;2,2,2-trifluoroacetic acid]"
5,422,"Cn1c(-c2cn(CCOC(F)(F)F)nc2C(F)(F)F)cnc1C(=O)Nc1ccc(C(=O)N2CCN(C(=O)C3CCNCC3)CC2)c(Cl)c1 [Example 332, N-(3-chloro-4-(4-(piperidine-4-carbonyl)piperazine-1-carbonyl)phenyl)-1-methyl-5-(1-(2-(trifluoromethoxy)ethyl)-3-(trifluoromethyl)-1H-pyrazol-4-yl)-1H-imidazole-2-carboxamide hydrochloride]"
6,377,"CSc1ccc(NC(=O)c2ncc(-c3cn(CC(F)F)nc3C(F)(F)F)n2C)cc1C [Example 308, 5-[1-(2,2-difluoroethyl)-3-(trifluoromethyl)pyrazol-4-yl]-1-methyl-N-(3-methyl-4-methylsulfanyl-phenyl)imidazole-2-carboxamide]"
7,366,"Cn1c(-c2cn(C3CC3)nc2C(F)(F)F)cnc1C(=O)Nc1ccc(C(=O)N2CCN(C(=O)[C@H]3CCNC3)CC2)c(Cl)c1 [Example 299, (S)-N-(3-chloro-4-(4-(pyrrolidine-3-carbonyl)piperazine-1-carbonyl)phenyl)-5-(1-cyclopropyl-3-(trifluoromethyl)-1H-pyrazol-4-yl)-1-methyl-1H-imidazole-2-carboxamide hydrochloride]"
8,335,"Cn1c(-c2cn(CC(F)F)nc2C(F)(F)F)cnc1C(=O)Nc1ccc(C(=O)N2CCN(C(=O)N[C@H]3C[C@@H](N)C3)CC2)c(F)c1 [Example 272, rac-N-((1s,3s)-3-aminocyclobutyl)-4-(4-(5-(1-(2,2-difluoroethyl)-3-(trifluoromethyl)-1H-pyrazol-4-yl)-1-methyl-1H-imidazole-2-carboxamido)-2-fluorobenzoyl)piperazine-1-carboxamide]"
9,700,"Cn1c(-c2cn(CC(F)F)nc2C(F)(F)F)cnc1C(=O)Nc1ccc(C(=O)N2CCN(C(=O)C3CCNCC3)CC2)c(Cl)c1 [Example 12, N-(3-chloro-4-(4-(piperidine-4-carbonyl)piperazine-1-carbonyl)phenyl)-5-(1-(2,2-difluoroethyl)-3-(trifluoromethyl)-1H-pyrazol-4-yl)-1-methyl-1H-imidazole-2-carboxamide hydrochloride]"
10,274,"Cn1c(-c2cn(C3CC3)nc2C(F)(F)F)cnc1C(=O)Nc1ccc(C(=O)N2CCN(C(=O)N[C@H]3C[C@@H](N)C3)CC2)c(Cl)c1 [Example 240, rac-N-((1s,3s)-3-aminocyclobutyl)-4-(2-chloro-4-(5-(1-cyclopropyl-3-(trifluoromethyl)-1H-pyrazol-4-yl)-1-methyl-1H-imidazole-2-carboxamido)benzoyl)piperazine-1-carboxamide formate]"
11,266,"Cn1c(-c2cn(C3CC3)nc2C(F)(F)F)cnc1C(=O)Nc1ccc(C(=O)N2CCN(C(=O)[C@@H]3CC[C@@H](N)C3)CC2)c(Cl)c1 [Example 230, N-(4-(4-((1R,3R)-3-aminocyclopentane-1-carbonyl)piperazine-1-carbonyl)-3-chlorophenyl)-5-(1-cyclopropyl-3-(trifluoromethyl)-1H-pyrazol-4-yl)-1-methyl-1H-imidazole-2-carboxamide hydrochloride]"
12,268,"Cn1c(-c2cn(CC(F)F)nc2C(F)(F)F)cnc1C(=O)Nc1ccc(C(=O)NC2C3CN(C(=O)C4CCNCC4)CC32)c(Cl)c1 (stereo not shown) [Example 235, N-(3-chloro-4-((3-(piperidine-4-carbonyl)-3-azabicyclo[3.1.0]hexan-6-yl)carbamoyl)phenyl)-5-(1-(2,2-difluoroethyl)-3-(trifluoromethyl)-1H-pyrazol-4-yl)-1-methyl-1H-imidazole-2-carboxamide formate]"
13,354,"Cn1c(-c2cn(C3CC3)nc2C(F)(F)F)cnc1C(=O)Nc1ccc(C(=O)NC[C@H]2CC[C@H](N)CC2)c(Cl)c1 [Example 289, rac-N-(4-((((1r,4r)-4-aminocyclohexyl)methyl)carba-moyl)-3-chlorophenyl)-5-(1-cyclopropyl-3-(trifluoromethyl)-1H-pyrazol-4-yl)-1-methyl-1H-imidazole-2-carboxamide hydrochloride]"
14,218,"C#CCn1cc(-c2cnc(C(=O)Nc3ccc(C(=O)N4CCN(C(=O)N5C[C@@H]6CNC[C@H]6C5)CC4)c(Cl)c3)n2C)c(C(F)(F)F)n1 [Example 90, N-[4-[4-[(3aS,6aS)-2,3,3a,4,6,6a-hexahydro-1H-pyrrolo[3,4-c]pyrrole-5-carbonyl]piperazine-1-carbonyl]-3-chlorophenyl]-1-methyl-5-[1-prop-2-ynyl-3-(trifluoromethyl)pyrazol-4-yl]imidazole-2-carboxamide]"
15,348,"Cn1c(-c2cn(CC3CCC3)nc2C(F)(F)F)cnc1C(=O)Nc1ccc(C(=O)N2CCN(C(=O)C3CCN3)CC2)c(Cl)c1 (stereo not shown) [Example 281, N-(4-(4-(azetidine-2-carbonyl)piperazine-1-carbonyl)-3-chlorophenyl)-5-(1-(cyclobutylmethyl)-3-(trifluoromethyl)-1H-pyrazol-4-yl)-1-methyl-1H-imidazole-2-carboxamide hydrochloride]"
16,2010,"COCCOCCn1cc(-c2cnc(C(=O)Nc3ccc(C(=O)N4CCN(C(=O)C5CCNCC5)CC4)c(Cl)c3)n2C)c(C(F)(F)F)n1 [Example 25, N-(3-chloro-4-(4-(piperidine-4-carbonyl)piperazine-1-carbonyl)phenyl)-5-(1-(2-(2-methoxyethoxy)ethyl)-3-(trifluoromethyl)-1H-pyrazol-4-yl)-1-methyl-1H-imidazole-2-carboxamide]"
17,229,"Cn1c(-c2cn(CC(F)F)nc2C(F)(F)F)cnc1C(=O)Nc1ccc(C(=O)N[C@H]2[C@@H]3CN(C(=O)N[C@H]4C[C@@H](N)C4)C[C@@H]32)c(Cl)c1 [Example 177, (1R,5S,6s)-N-(cis-3-aminocyclobutyl)-6-(2-chloro-4-(5-(1-(2,2-difluoroethyl)-3-(trifluoromethyl)-1H-pyrazol-4-yl)-1-methyl-1H-imidazole-2-carboxamido)benzamido)-3-azabicyclo[3.1.0]hexane-3-carboxamide]"
18,369,"Cn1c(-c2cn(CC(F)F)nc2C(F)(F)F)cnc1C(=O)Nc1ccc(C(=O)N2CCN(C(=O)C3CCNCC3)CC2)c(F)c1 [Example 301, 5-(1-(2,2-difluoroethyl)-3-(trifluoromethyl)-1H-pyrazol-4-yl)-N-(3-fluoro-4-(4-(piperidine-4-carbonyl)piperazine-1-carbonyl)phenyl)-1-methyl-1H-imidazole-2-carboxamide]"
19,325,"Cn1c(-c2cn(C3CC3(F)F)nc2C(F)(F)F)cnc1C(=O)Nc1ccc(C(=O)N[C@H]2[C@@H]3CN(C(=O)N4CCN(CCCN)CC4)C[C@@H]32)c(Cl)c1 (stereo partly drawn) [Example 264, N-(4-(((1R,5S,6s)-3-(4-(3-aminopropyl)piperazine-1-carbonyl)-3-azabicyclo[3.1.0]hexan-6-yl)carbamoyl)-3-chlorophenyl)-5-(1-(2,2-difluorocyclopropyl)-3-(trifluoromethyl)-1H-pyrazol-4-yl)-1-methyl-1H-imidazole-2-carboxamide]"
20,188,"Cn1c(-c2cn(C3CC3(F)F)nc2C(F)(F)F)cnc1C(=O)Nc1ccc(C(=O)NC2CC3(CC(N)C3)C2)c(Cl)c1 (stereo not shown) [Example 193, N-(4-((6-aminospiro[3.3]heptan-2-yl)carbamoyl)-3-chlorophenyl)-5-(1-(2,2-difluorocyclopropyl)-3-(trifluoromethyl)-1H-pyrazol-4-yl)-1-methyl-1H-imidazole-2-carboxamide formate]"
21,531,"CC(C)Cn1cc(-c2cnc(C(=O)Nc3ccc(C(=O)N4CCN(C(=O)C5CCNCC5)CC4)c(Cl)c3)n2C)c(C(F)(F)F)n1 [Example 27, N-(3-chloro-4-(4-(piperidine-4-carbonyl)piperazine-1-carbonyl)phenyl)-5-(1-isobutyl-3-(trifluoromethyl)-1H-pyrazol-4-yl)-1-methyl-1H-imidazole-2-carboxamide]"
22,131,"C#CCn1cc(-c2cnc(C(=O)Nc3ccc(C(=O)N4CCN(C(=O)N5CC[C@@H](N)C5)CC4)c(Cl)c3)n2C)c(C(F)(F)F)n1 [Example 79, N-[4-[4-[(3R)-3-aminopyrrolidine-1-carbonyl]piperazine-1-carbonyl]-3-chlorophenyl]-1-methyl-5-[1-prop-2-ynyl-3-(trifluoromethyl)pyrazol-4-yl]imidazole-2-carboxamide]"
